In this experiment the test system is HVA calcium channel. In kind it is cell-based, rat.

“Also recorded” adds a separate entry of the source.

As for KCCTMSVCQPPPVCTCCA [κ-CPTx-btl01], the current after loading is given as −459.93 pA and the “inhibition of HVA calcium channel currents compared with Nifedipine (positive control)” value is recorded as “inhibitory effect is higher than that of Nifedipine; also recorded: higher inhibition rate on HVA calcium channel currents than Nifedipine”. Further, the inhibition rate (10 µM) worked out at 52.17%.

These data come from patent US10501498B2 (BGI SHENZHEN, priority 2014, dated 2019).
